Source: US10874743B2, “IRAK degraders and uses thereof” (Kymera Therapeutics, Inc., priority 2017, dated 2020)

Tests used:
[1] = biological target: T1, IRAK4 (Homo sapiens, UniProt Q9NWZ3); test: OCI-LY-10 MSD assay for IRAK4 DC50; type: cell-based; set-up: endogenous in cells; host or cells: OCI-LY10; conditions: OCI-LY10 cells, 4 hr incubation, concentration required to degrade 50% of protein
T1 sequence (Q9NWZ3 1-460): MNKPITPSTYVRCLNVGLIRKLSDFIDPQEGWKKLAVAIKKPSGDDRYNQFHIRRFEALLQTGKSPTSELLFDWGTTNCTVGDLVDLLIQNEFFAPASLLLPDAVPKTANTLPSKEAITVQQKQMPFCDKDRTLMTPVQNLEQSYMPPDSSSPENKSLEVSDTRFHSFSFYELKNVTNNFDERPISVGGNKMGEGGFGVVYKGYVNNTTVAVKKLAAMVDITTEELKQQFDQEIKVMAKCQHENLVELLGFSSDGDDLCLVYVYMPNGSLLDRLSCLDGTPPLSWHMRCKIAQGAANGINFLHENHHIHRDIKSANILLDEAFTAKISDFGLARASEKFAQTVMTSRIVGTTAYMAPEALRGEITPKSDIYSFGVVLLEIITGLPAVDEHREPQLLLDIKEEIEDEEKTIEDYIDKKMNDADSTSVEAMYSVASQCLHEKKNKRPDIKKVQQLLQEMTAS
Procedure, shortened: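 IRAK4 level was quantified by MSD electrochemiluminescence (anti-IRAK4 capture antibody, rabbit anti-IRAK4 detection antibody) in RIPA lysates of OCI-Ly10 cells. Cells had been treated with compound for 4 hr (8-point, 3-fold serial dilution). Remaining protein versus concentration was fitted to a sigmoidal curve to give DC50.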

[2] = biological target: T1, IRAK4; test: OCI-LY-10 degradation assay (western blot, % IRAK4 degraded after 4 hours); type: cell-based; set-up: endogenous in cells; host or cells: OCI-LY10; conditions: OCI-LY10 cells, 4 hours; for OCI-LY10 % IRAK4 Degradation (0.01 uM): 0.01 uM compound; for OCI-LY10 % IRAK4 Degradation (0.1 uM): 0.1 uM compound; for OCI-LY10 % IRAK4 Degradation (1 uM): 1 uM compound
Procedure, shortened: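 IRAK4 loss after 4 h at 37° C was scored A (>50%), B (>20-50%) or C (<20%) from infrared western blots of RIPA lysates, 20-25 μg protein per lane. Compound was applied at 0.003-10 μM final to OCI-LY10 cells cultured in RPMI-1640 with 20% FBS and 55 μM 2-ME.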

DC50 [1] | OCI-LY10 % IRAK4 Degradation (0.01 uM) [2] | OCI-LY10 % IRAK4 Degradation (0.1 uM) [2] | OCI-LY10 % IRAK4 Degradation (1 uM) [2] | SMILES
50 to 100 nM | C (<20% degradation) | C (<20% degradation) | A (>50% degradation) | CC(=O)O[C@@H]1C[C@@H](C(=O)NCc2ccc(-n3cc(NC(=O)c4coc(-c5ccnc(NCC6CC6)c5)n4)c(C(F)F)n3)cc2)N(C(=O)COCCOCCOCCNc2cccc3c2C(=O)N(C2CCC(=O)NC2=O)C3=O)C1 (stereo partly drawn) [I-288]
> 1000 nM | B (>20-50% degradation) | B (>20-50% degradation) | B (>20-50% degradation) | NC(=O)c1nn(-c2ccc(C(=O)NCCOCCOCCN3CCC(Nc4cccc5c4C(=O)N(C4CCC(=O)NC4=O)C5=O)CC3)cc2)cc1NC(=O)c1coc(-c2ccnc(NCC3CC3)c2)n1 (stereo not drawn) [I-290]
> 1000 nM | C (<20% degradation) | C (<20% degradation) | C (<20% degradation) | Cn1cc(NC(=O)c2coc(-c3ccnc(NCC(F)(F)F)c3)n2)c(C(=O)NCCCOCC(C)(C)COCCCc2cccc3c2n(C)c(=O)n3C2CCC(=O)NC2=O)n1 (stereo not drawn) [I-297]
< 50 nM | B (>20-50% degradation) | A (>50% degradation) | A (>50% degradation) | NC(=O)c1nn(-c2ccc(COCC3CN(CCOCCNc4cccc5c4C(=O)N(C4CCC(=O)NC4=O)C5=O)CCO3)cc2)cc1NC(=O)c1coc(-c2ccnc(NCC(F)(F)F)c2)n1 (stereo not drawn) [I-302, N-[3-carbamoyl-1-[4-[[4-[2-[2-[[2-(2,6-dioxo-3-piperidyl)-1,3-dioxo-isoindolin-4-yl]amino]ethoxy]ethyl]morpholin-2-yl]methoxymethyl]phenyl]pyrazol-4-yl]-2-[2-(2,2,2-trifluoroethylamino)-4-pyridyl]oxazole-4-carboxamide]
< 50 nM | A (>50% degradation) | A (>50% degradation) | A (>50% degradation) | NC(=O)c1nn(-c2ccc(CNCC3CN(CCOCCNc4cccc5c4C(=O)N(C4CCC(=O)NC4=O)C5=O)CCO3)cc2)cc1NC(=O)c1coc(-c2ccnc(NCC(F)(F)F)c2)n1 (stereo not drawn) [I-305, N-[3-carbamoyl-1-[4-[[[4-[2-[2-[[2-(2,6-dioxo-3-piperidyl)-1,3-dioxo-isoindolin-4-yl]amino]ethoxy]ethyl]morpholin-2-yl]methylamino]methyl]phenyl]pyrazol-4-yl]-2-[2-(2,2,2-trifluoroethylamino)-4-pyridyl]oxazole-4-carboxamide]
50 to 100 nM | B (>20-50% degradation) | A (>50% degradation) | A (>50% degradation) | CN(CCOCCOCCCc1ccc2c(c1)C(=O)N(C1CCC(=O)NC1=O)C2=O)Cc1ccc(-n2cc(NC(=O)c3coc(-c4ccnc(NCC5CC5)c4)n3)c(C(N)=O)n2)cc1 (stereo not drawn) [I-308]
< 50 nM | B (>20-50% degradation) | A (>50% degradation) | A (>50% degradation) | NC(=O)c1nn(-c2ccc(CNCCOCCOCCn3c(=O)n(C4CCC(=O)NC4=O)c4ccccc43)cc2)cc1NC(=O)c1coc(-c2ccnc(NCC3CC3)c2)n1 (stereo not drawn) [I-319]
> 1000 nM | C (<20% degradation) | B (>20-50% degradation) | B (>20-50% degradation) | NC(=O)c1nn(-c2ccc(CNCCOCCCc3cccc4c3C(=O)N(C3CCC(=O)NC3=O)C4=O)cc2)cc1NC(=O)c1coc(-c2ccnc(NCC(F)(F)F)c2)n1 (stereo not drawn) [I-320]
< 50 nM | B (>20-50% degradation) | A (>50% degradation) | A (>50% degradation) | NC(=O)c1nn(-c2ccc(CNCCOCCOCCCc3cccc4c3C(=O)N(C3CCC(=O)NC3=O)C4=O)cc2)cc1NC(=O)c1coc(-c2ccnc(NCC(F)(F)F)c2)n1 (stereo not drawn) [I-321]
< 50 nM | A (>50% degradation) | A (>50% degradation) | A (>50% degradation) | Cn1c(=O)n(C2CCC(=O)NC2=O)c2cccc(CCCOCCOCCNCc3ccc(-n4cc(NC(=O)c5coc(-c6ccnc(NCC7CC7)c6)n5)c(C(F)F)n4)cc3)c21 (stereo not drawn) [I-332]
50 to 100 nM | C (<20% degradation) | A (>50% degradation) | A (>50% degradation) | O=C1CCC(N2C(=O)c3cccc(OCc4cn(CCOCCOCCNCc5ccc(-n6cc(NC(=O)c7coc(-c8ccnc(NCC9CC9)c8)n7)c(C(F)F)n6)cc5)nn4)c3C2=O)C(=O)N1 (stereo not drawn) [I-344]

Continued, compound first:

SMILES | DC50 [1] | OCI-LY10 % IRAK4 Degradation (0.01 uM) [2] | OCI-LY10 % IRAK4 Degradation (0.1 uM) [2] | OCI-LY10 % IRAK4 Degradation (1 uM) [2]
O=C1CCC(N2C(=O)c3ccc(NC4CCN(CCOCCOCCNC(=O)c5ccc(-n6cc(NC(=O)c7coc(-c8ccnc(NCC9CC9)c8)n7)c(C(F)F)n6)cc5)CC4)cc3C2=O)C(=O)N1 (stereo not drawn) [I-270] | 100 to 500 nM | C (<20% degradation) | B (>20-50% degradation) | A (>50% degradation)
O=C1CCC(N2C(=O)c3ccc(NC4CCN(CCOCCOCCOCCNC(=O)c5ccc(-n6cc(NC(=O)c7coc(-c8ccnc(NCC9CC9)c8)n7)c(C(F)F)n6)cc5)CC4)cc3C2=O)C(=O)N1 (stereo not drawn) [I-272] | 100 to 500 nM | C (<20% degradation) | B (>20-50% degradation) | A (>50% degradation)
O=C1CCC(N2C(=O)c3ccc(N4CCN(CCOCCOCCNC(=O)c5ccc(-n6cc(NC(=O)c7coc(-c8ccnc(NCC9CC9)c8)n7)c(C(F)F)n6)cc5)CC4)cc3C2=O)C(=O)N1 (stereo not drawn) [I-276] | 50 to 100 nM | C (<20% degradation) | B (>20-50% degradation) | A (>50% degradation)
O=C1CCC(N2C(=O)c3ccc(N4CCN(CCOCCNC(=O)c5ccc(-n6cc(NC(=O)c7coc(-c8ccnc(NCC9CC9)c8)n7)c(C(F)F)n6)cc5)CC4)cc3C2=O)C(=O)N1 (stereo not drawn) [I-277] | 50 to 100 nM | C (<20% degradation) | A (>50% degradation) | A (>50% degradation)
O=C1CCC(N2C(=O)c3ccc(N4CCN(CCOCCOCCOCCNC(=O)c5ccc(-n6cc(NC(=O)c7coc(-c8ccnc(NCC9CC9)c8)n7)c(C(F)F)n6)cc5)CC4)cc3C2=O)C(=O)N1 (stereo not drawn) [I-278] | 50 to 100 nM | C (<20% degradation) | B (>20-50% degradation) | A (>50% degradation)
CN(CCOCCOCCCc1ccc2c(c1)C(=O)N(C1CCC(=O)NC1=O)C2=O)C(=O)c1ccc(-n2cc(NC(=O)c3coc(-c4ccnc(NCC(F)(F)F)c4)n3)c(C(F)F)n2)cc1 (stereo not drawn) [I-279] | 50 to 100 nM | C (<20% degradation) | A (>50% degradation) | A (>50% degradation)
O=C1CCC(N2C(=O)c3cccc(NCCOCCN4CCO[C@H](CNC(=O)c5ccc(-n6cc(NC(=O)c7coc(-c8ccnc(NCC(F)(F)F)c8)n7)c(C(F)F)n6)cc5)C4)c3C2=O)C(=O)N1 (stereo partly drawn) [I-281] | 50 to 100 nM | C (<20% degradation) | A (>50% degradation) | A (>50% degradation)
O=C1CCC(N2C(=O)c3cccc(NC4CCN(CCOCCOCCNC(=O)c5ccc(-n6cc(NC(=O)c7coc(-c8ccnc(NCC(F)(F)F)c8)n7)c(C(F)F)n6)cc5)CC4)c3C2=O)C(=O)N1 (stereo not drawn) [I-283] | < 50 nM | A (>50% degradation) | A (>50% degradation) | A (>50% degradation)
CC(C)(C)[C@H](NC(=O)COCCOCCOCCNc1cccc2c1C(=O)N(C1CCC(=O)NC1=O)C2=O)C(=O)N1C[C@H](O)C[C@H]1C(=O)NCc1ccc(-n2cc(NC(=O)c3coc(-c4ccnc(NCC5CC5)c4)n3)c(C(F)F)n2)cc1 (stereo partly drawn) [I-284] | > 1000 nM | C (<20% degradation) | C (<20% degradation) | C (<20% degradation)
O=C1CCC(N2C(=O)c3cccc(NCCOCCOCCOCC(=O)N4C[C@H](O)C[C@H]4C(=O)NCc4ccc(-n5cc(NC(=O)c6coc(-c7ccnc(NCC8CC8)c7)n6)c(C(F)F)n5)cc4)c3C2=O)C(=O)N1 (stereo partly drawn) [I-287] | > 1000 nM | C (<20% degradation) | C (<20% degradation) | B (>20-50% degradation)
